Results taken from publication PMC2849157 (Bioorganic & medicinal chemistry letters, 2010).

Columns and labels:
HIV = experiment: anti-HIV activity, cellular assay; assay type: cell-based, human immunodeficiency virus 1 (HIV); settings: for antiviral activity: in words; for EC50: Human immunodeficiency virus 1, MT2, read-out: EC50, anti-HIV activity
HCV = experiment: anti-HCV activity; assay type: cell-based; settings: Hepatitis C virus, read-out: EC50, anti-HCV activity
hepatitis B virus (HBV) = experiment: effect on replication of HBV; assay type: cell-based
HSV-2 = experiment: effect on replication of HSV-2; assay type: cell-based
[1] = test system: herpes simplex virus-1 (HSV-1); experiment: effect on replication of HSV-1; assay type: cell-based
MT-2 = experiment: cytotoxicity; assay type: cell-based, human; settings: MT-2 cellular assay

`CCCCOc1c2cc(C(=O)Nc3cc(C(=O)O)cc(C(=O)OCc4ccccc4)c3)cc1Cc1cc(C(=O)Nc3cc(C(=O)O)cc(C(=O)OCc4ccccc4)c3)cc(c1OCCCC)Cc1cc(C(=O)Nc3cc(C(=O)O)cc(C(=O)OCc4ccccc4)c3)cc(c1OCCCC)Cc1cc(C(=O)Nc3cc(C(=O)O)cc(C(=O)OCc4ccccc4)c3)cc(c1OCCCC)C2` [Compound 1] was tested. Which antiviral activity (HIV) did it give?
Its antiviral activity is “little to no antiviral activity”.

Which EC50 (HCV) does the source give for `CCCCOc1c2cc(C(=O)Nc3cc(C(=O)O)cc(C(=O)O)c3)cc1Cc1cc(C(=O)Nc3cc(C(=O)O)cc(C(=O)O)c3)cc(c1OCCCC)Cc1cc(C(=O)Nc3cc(C(=O)O)cc(C(=O)O)c3)cc(c1OCCCC)Cc1cc(C(=O)Nc3cc(C(=O)O)cc(C(=O)O)c3)cc(c1OCCCC)C2` [Compound 2] here?
The EC50 was 1800 nM.

And the “effect on the replication of HBV” value (hepatitis B virus (HBV))?
The value was “no effect”.

And the “effect on the replication of HSV-2” value (HSV-2)?
The value was “no effect”.

What about the “effect on the replication of HSV-1” value [1] of the same compound?
The value was “no effect”.

And the “potency against different laboratory HIV strains” value (HIV; HIV-IIIB, NL-43, LaiM184V)?
Its value is “equally potent”.

And the EC50 (HIV)?
The EC50 was 300 nM.

And the “antiviral activity in different cell lines” value (HIV; MT-2, CEMx174, TZM-bl)?
Its value is “antiviral activity was retained in all these cell lines”.

How did the antiviral activity (HIV) turn out when `CCCCOc1c2cc(C(=O)Nc3cc(C(=O)O)cc(C(=O)NC4CCCCC4)c3)cc1Cc1cc(C(=O)Nc3cc(C(=O)O)cc(C(=O)NC4CCCCC4)c3)cc(c1OCCCC)Cc1cc(C(=O)Nc3cc(C(=O)O)cc(C(=O)NC4CCCCC4)c3)cc(c1OCCCC)Cc1cc(C(=O)Nc3cc(C(=O)O)cc(C(=O)NC4CCCCC4)c3)cc(c1OCCCC)C2` [Compound 3] was run?
Its antiviral activity is “little to no antiviral activity”.

For `CCCCOc1c2cc(C(=O)NCCN)cc1Cc1cc(C(=O)NCCN)cc(c1OCCCC)Cc1cc(C(=O)NCCN)cc(c1OCCCC)Cc1cc(C(=O)NCCN)cc(c1OCCCC)C2` [Compound 7], which antiviral activity (HIV) is on record?
The antiviral activity was “lack of antiviral activity”.

`O=C(O)c1cc(NC(=O)c2cc3c(O)c(c2)Cc2cc(C(=O)Nc4cc(C(=O)O)cc(C(=O)O)c4)cc(c2O)Cc2cc(C(=O)Nc4cc(C(=O)O)cc(C(=O)O)c4)cc(c2O)Cc2cc(C(=O)Nc4cc(C(=O)O)cc(C(=O)O)c4)cc(c2O)C3)cc(C(=O)O)c1` [Compound 9] was tested. Which EC50 (HCV) did it give?
Its EC50 is > 50000 nM.

What about the EC50 (HIV) of the same compound?
The EC50 was 6700 nM.

`O=C(O)c1cc(NC(=O)c2cc3c(OCc4ccccc4)c(c2)Cc2cc(C(=O)Nc4cc(C(=O)O)cc(C(=O)O)c4)cc(c2OCc2ccccc2)Cc2cc(C(=O)Nc4cc(C(=O)O)cc(C(=O)O)c4)cc(c2OCc2ccccc2)Cc2cc(C(=O)Nc4cc(C(=O)O)cc(C(=O)O)c4)cc(c2OCc2ccccc2)C3)cc(C(=O)O)c1` [Compound 11] was tested. Which EC50 (HCV) did it give?
The EC50 was 1400 nM.

What about the “ID50 (toxicity)” value (MT-2) of the same compound?
The value was 18000 nM.

And the EC50 (HIV)?
Its EC50 is 300 nM.
